Read-outs that look alike come from different tables or passages of the source.
Columns and labels:
Human mTOR (FLAG-TOR) = Human mTOR (FLAG-TOR) (Homo sapiens, UniProt P42345); assay: mTOR kinase assay (DELFIA format, purified enzyme); type: biochemical; conditions: read-out: IC50 mTOR
PI3K-γ = PI3K-γ (Homo sapiens, UniProt P48736); assay: PI3K-gamma fluorescence polarization assay; conditions: read-out: IC50 PI3Kγ
[1] = test system: human breast MDA-MB-361 tumor cell line; assay: In vitro cell culture growth assay (MTS), MDA-MB-361; type: cell-based; conditions: Homo sapiens, three days after drug treatment, MDA-MB-361 cells, read-out: IC50 MDA-MB-361
PI3K-α = PI3K-α (Homo sapiens, UniProt P42336); assay: PI3K-alpha fluorescence polarization assay; conditions: read-out: IC50 PI3Kα
Sequence of PI3K-α (P42336 whole entry, species assumed): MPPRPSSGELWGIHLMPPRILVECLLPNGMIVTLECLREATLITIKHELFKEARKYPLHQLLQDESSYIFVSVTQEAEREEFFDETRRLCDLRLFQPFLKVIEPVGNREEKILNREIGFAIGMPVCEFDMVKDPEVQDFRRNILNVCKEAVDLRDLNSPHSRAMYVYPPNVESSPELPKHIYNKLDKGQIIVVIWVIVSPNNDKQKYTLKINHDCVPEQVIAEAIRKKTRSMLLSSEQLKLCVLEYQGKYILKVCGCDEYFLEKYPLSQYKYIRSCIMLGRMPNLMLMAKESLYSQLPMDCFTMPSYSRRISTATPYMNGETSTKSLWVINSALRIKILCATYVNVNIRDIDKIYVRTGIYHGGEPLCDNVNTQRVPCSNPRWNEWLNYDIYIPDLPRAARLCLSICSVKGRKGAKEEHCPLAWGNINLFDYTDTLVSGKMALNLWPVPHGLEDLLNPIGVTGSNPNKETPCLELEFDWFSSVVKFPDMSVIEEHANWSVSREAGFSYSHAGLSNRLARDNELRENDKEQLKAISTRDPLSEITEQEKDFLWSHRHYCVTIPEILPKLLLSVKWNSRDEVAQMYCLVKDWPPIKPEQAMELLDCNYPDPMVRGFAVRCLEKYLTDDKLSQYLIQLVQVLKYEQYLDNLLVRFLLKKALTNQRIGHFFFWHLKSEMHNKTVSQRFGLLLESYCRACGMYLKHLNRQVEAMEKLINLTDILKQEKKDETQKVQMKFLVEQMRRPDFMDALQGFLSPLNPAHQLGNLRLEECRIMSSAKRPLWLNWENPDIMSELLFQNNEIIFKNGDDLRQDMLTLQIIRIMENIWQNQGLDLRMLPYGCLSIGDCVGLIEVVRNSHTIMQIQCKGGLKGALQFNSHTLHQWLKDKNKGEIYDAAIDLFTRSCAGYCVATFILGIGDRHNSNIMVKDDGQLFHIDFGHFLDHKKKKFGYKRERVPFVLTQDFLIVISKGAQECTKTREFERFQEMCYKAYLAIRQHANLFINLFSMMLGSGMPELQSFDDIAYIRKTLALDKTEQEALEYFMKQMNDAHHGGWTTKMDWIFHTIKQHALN
Sequence of PI3K-α (P27986 whole entry partner, species assumed): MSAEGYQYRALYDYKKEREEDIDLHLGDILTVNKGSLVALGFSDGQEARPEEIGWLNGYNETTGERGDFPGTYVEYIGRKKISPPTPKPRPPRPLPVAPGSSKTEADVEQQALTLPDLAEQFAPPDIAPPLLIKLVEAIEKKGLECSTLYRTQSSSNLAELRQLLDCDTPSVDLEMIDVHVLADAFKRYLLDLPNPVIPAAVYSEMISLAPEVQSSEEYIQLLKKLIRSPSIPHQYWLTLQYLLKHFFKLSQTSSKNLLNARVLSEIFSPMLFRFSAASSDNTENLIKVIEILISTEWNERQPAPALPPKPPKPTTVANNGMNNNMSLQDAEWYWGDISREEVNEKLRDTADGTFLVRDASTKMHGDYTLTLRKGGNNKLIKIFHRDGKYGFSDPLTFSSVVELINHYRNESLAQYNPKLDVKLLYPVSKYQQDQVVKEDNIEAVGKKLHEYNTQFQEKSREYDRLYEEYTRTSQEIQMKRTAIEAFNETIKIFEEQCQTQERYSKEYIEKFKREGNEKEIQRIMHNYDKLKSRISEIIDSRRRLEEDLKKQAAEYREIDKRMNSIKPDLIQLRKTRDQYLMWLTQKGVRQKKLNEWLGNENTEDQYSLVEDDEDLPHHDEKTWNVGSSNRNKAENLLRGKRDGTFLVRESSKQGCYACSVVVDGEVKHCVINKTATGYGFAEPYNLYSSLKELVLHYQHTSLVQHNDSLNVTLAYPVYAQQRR

[2] = test system: human prostate PC3-mm2 tumor cell line; assay: In vitro cell culture growth assay (MTS), PC3-mm2; type: cell-based; conditions: Homo sapiens, PC3MM2, 72 h, three days after drug treatment, PC3-mm2 cells, read-out: IC50 PC3-mm2
[3] = MDA-MB-361, 72 h, MTS cell growth assay

Sequence of Human mTOR (FLAG-TOR) (P42345 1360-2549 limits assumed): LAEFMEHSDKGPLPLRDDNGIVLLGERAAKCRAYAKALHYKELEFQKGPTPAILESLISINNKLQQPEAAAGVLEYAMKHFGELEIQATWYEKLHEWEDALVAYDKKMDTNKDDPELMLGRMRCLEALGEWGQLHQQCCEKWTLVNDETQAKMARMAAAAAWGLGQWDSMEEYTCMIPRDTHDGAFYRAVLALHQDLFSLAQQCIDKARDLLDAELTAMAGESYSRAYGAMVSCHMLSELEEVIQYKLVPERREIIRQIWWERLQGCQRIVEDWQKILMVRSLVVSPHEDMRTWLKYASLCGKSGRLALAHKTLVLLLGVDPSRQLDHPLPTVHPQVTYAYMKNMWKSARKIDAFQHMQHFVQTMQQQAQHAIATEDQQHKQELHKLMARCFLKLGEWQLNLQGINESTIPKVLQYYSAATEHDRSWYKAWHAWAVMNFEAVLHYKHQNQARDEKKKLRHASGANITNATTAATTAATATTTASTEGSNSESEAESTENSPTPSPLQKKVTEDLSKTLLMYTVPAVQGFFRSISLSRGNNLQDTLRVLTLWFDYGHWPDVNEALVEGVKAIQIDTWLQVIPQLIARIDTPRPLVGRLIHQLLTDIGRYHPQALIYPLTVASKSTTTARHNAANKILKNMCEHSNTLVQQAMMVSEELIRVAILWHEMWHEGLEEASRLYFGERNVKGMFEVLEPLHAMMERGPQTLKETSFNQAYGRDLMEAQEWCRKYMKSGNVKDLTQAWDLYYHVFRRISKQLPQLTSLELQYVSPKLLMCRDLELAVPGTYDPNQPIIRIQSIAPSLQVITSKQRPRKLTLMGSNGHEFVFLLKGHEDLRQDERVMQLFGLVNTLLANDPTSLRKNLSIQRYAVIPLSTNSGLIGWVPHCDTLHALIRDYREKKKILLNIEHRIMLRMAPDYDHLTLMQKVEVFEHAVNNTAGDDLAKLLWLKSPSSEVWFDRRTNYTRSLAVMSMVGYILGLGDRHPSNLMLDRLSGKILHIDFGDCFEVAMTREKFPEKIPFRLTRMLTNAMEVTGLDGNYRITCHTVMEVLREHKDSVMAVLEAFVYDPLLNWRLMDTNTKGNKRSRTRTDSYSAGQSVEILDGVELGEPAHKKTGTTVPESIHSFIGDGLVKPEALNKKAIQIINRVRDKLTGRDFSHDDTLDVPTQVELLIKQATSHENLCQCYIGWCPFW
Sequence of PI3K-γ (P48736 whole entry, species assumed): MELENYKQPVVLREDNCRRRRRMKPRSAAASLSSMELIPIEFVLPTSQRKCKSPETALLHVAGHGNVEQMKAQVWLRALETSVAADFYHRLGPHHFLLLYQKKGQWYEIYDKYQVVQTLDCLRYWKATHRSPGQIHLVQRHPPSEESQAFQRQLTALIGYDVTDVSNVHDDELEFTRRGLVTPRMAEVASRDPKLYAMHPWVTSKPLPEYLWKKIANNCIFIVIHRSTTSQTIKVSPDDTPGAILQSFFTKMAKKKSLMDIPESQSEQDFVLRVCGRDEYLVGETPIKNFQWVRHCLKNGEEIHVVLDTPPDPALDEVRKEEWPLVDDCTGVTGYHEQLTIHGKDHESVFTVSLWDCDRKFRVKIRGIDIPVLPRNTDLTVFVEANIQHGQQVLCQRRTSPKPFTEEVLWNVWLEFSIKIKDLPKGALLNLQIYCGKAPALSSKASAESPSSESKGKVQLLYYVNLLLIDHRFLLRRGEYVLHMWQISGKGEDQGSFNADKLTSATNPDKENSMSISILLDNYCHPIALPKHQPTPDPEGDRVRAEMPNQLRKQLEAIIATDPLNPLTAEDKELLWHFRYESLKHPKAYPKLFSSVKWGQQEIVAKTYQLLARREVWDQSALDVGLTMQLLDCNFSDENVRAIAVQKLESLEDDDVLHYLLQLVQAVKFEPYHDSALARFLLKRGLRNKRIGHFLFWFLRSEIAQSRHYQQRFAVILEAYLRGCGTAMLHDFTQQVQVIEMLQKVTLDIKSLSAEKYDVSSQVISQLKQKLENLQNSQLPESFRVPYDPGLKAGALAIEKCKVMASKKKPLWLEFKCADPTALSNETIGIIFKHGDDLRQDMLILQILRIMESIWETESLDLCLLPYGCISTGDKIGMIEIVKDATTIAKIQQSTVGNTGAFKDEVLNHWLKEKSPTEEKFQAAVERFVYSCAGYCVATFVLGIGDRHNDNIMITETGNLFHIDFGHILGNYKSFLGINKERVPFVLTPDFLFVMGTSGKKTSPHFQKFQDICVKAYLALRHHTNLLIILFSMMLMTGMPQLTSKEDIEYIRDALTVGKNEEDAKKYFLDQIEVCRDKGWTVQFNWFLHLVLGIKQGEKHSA

| IC50 ([1]; MDA-MB-361, 72 h, MTS) [nM] | SMILES | IC50 (Human mTOR (FLAG-TOR)) [nM] | IC50 (PI3K-γ) [nM] | IC50 [1, 3] [nM] | IC50 (PI3K-α) [nM] | IC50 ([2]; MTS cell growth assay) [nM] | IC50 ([1]; 72 h, MTS) [nM] | IC50 ([2]; MTS) [nM] |
| --- | --- | --- | --- | --- | --- | --- | --- | --- |
|  | CN1CCN(C(=O)c2ccc(NC(=O)Nc3ccc(-c4nc(N5CCOCC5)nc(N5C6CCCC5COC6)n4)cc3)cc2)CC1 [Example 792, 1-{4-[(4-methylpiperazin-1-yl)carbonyl]phenyl}-3-{4-[4-morpholin-4-yl-6-(3-oxa-9-azabicyclo[3.3.1]non-9-yl)-1,3,5-triazin-2-yl]phenyl}urea] | 0.81 | 35.5 | 2 | 3.3 | 16 |  |  |
|  | O=C(Nc1ccc(C(=O)N2CCNCC2)cc1)Nc1ccc(-c2nc(N3CCOCC3)nc(N3C4CCCC3COC4)n2)cc1 [Example 793, 1-{4-[4-morpholin-4-yl-6-(3-oxa-9-azabicyclo[3.3.1]non-9-yl)-1,3,5-triazin-2-yl]phenyl}-3-[4-(piperazin-1-ylcarbonyl)phenyl]urea] | 0.42 | 15 | 2 | 1 | 26 |  |  |
|  | CN(C)C1CCN(C(=O)c2ccc(NC(=O)Nc3ccc(-c4nc(N5CCOCC5)nc(N5C6CCCC5COC6)n4)cc3)cc2)CC1 [Example 794, 1-(4-{[4-(dimethylamino)piperidin-1-yl]carbonyl}phenyl)-3-{4-[4-morpholin-4-yl-6-(3-oxa-9-azabicyclo[3.3.1]non-9-yl)-1,3,5-triazin-2-yl]phenyl}urea] | 0.63 | 26 | 2 | 4.1 | 20 |  |  |
|  | CN(C)CCN(C)C(=O)c1ccc(NC(=O)Nc2ccc(-c3nc(N4CCOCC4)nc(N4C5CCCC4COC5)n3)cc2)cc1 [Example 795, N-[2-(dimethylamino)ethyl]-N-methyl-4-[({4-[4-morpholin-4-yl-6-(3-oxa-9-azabicyclo[3.3.1]non-9-yl)-1,3,5-triazin-2-yl]phenyl}carbamoyl)amino]benzamide] | 0.425 | 26.5 |  | 2.7 |  | < 3.2 | 10 |
|  | CN(C)CCNC(=O)c1ccc(NC(=O)Nc2ccc(-c3nc(N4CCOCC4)nc(N4C5CCCC4COC5)n3)cc2)cc1 [Example 796, N-[2-(dimethylamino)ethyl]-4-[({4-[4-morpholin-4-yl-6-(3-oxa-9-azabicyclo[3.3.1]non-9-yl)-1,3,5-triazin-2-yl]phenyl}carbamoyl)amino]benzamide] | 0.39 | 31.5 |  | 2.6 |  | 2 | 18 |
|  | COCCNC(=O)c1ccc(NC(=O)Nc2ccc(-c3nc(N4CCOCC4)nc(N4C5CCCC4COC5)n3)cc2)cc1 [Example 797, N-(2-methoxyethyl)-4-[({4-[4-morpholin-4-yl-6-(3-oxa-9-azabicyclo[3.3.1]non-9-yl)-1,3,5-triazin-2-yl]phenyl}carbamoyl)amino]benzamide] | 1.3 | 76 |  | 11.5 |  | 11 | 29 |
|  | O=C(Nc1ccc(C(=O)NCCN2CCCC2)cc1)Nc1ccc(-c2nc(N3CCOCC3)nc(N3C4CCCC3COC4)n2)cc1 [Example 798, 4-[({4-[4-morpholin-4-yl-6-(3-oxa-9-azabicyclo[3.3.1]non-9-yl)-1,3,5-triazin-2-yl]phenyl}carbamoyl)amino]-N-(2-pyrrolidin-1-ylethyl)benzamide] | 0.445 | 43.5 |  | 4.1 |  | 3 | 24 |
|  | O=C(Nc1ccc(C(=O)NCCN2CCCCC2)cc1)Nc1ccc(-c2nc(N3CCOCC3)nc(N3C4CCCC3COC4)n2)cc1 [Example 799, 4-[({4-[4-morpholin-4-yl-6-(3-oxa-9-azabicyclo[3.3.1]non-9-yl)-1,3,5-triazin-2-yl]phenyl}carbamoyl)amino]-N-(2-piperidin-1-ylethyl)benzamide] | 0.5 | 71.5 |  | 5 |  | < 3.2 | 24 |
|  | CN1CCCC1CCNC(=O)c1ccc(NC(=O)Nc2ccc(-c3nc(N4CCOCC4)nc(N4C5CCCC4COC5)n3)cc2)cc1 (centres unmarked) [Example 801, N-[2-(1-methylpyrrolidin-2-yl)ethyl]-4-[({4-[4-morpholin-4-yl-6-(3-oxa-9-azabicyclo[3.3.1]non-9-yl)-1,3,5-triazin-2-yl]phenyl}carbamoyl)amino]benzamide] | 0.455 | 38 |  | 5 |  | 3 | 32 |
|  | CNCCN(C)C(=O)c1ccc(NC(=O)Nc2ccc(-c3nc(N4CCOCC4)nc(N4C5CCCC4COC5)n3)cc2)cc1 [Example 802, N-methyl-N-[2-(methylamino)ethyl]-4-[({4-[4-morpholin-4-yl-6-(3-oxa-9-azabicyclo[3.3.1]non-9-yl)-1,3,5-triazin-2-yl]phenyl}carbamoyl)amino]benzamide] | 0.675 | 23 |  | 3.5 |  | 3 | 50 |
| 2 | CN(C)C1CCN(C(=O)c2ccc(NC(=O)Nc3ccc(-c4nc(N5CCOCC5)nc(N5CC6CCC5CO6)n4)cc3)cc2)CC1 (centres unmarked) [Example 810, 1-(4-{[4-(dimethylamino)piperidin-1-yl]carbonyl}phenyl)-3-{4-[4-morpholin-4-yl-6-(2-oxa-5-azabicyclo[2.2.2]oct-5-yl)-1,3,5-triazin-2-yl]phenyl}urea] | 2.05 | 30.5 |  | 2.8 |  |  | 26 |
| 2 | CC(C)N1CCN(C(=O)c2ccc(NC(=O)Nc3ccc(-c4nc(N5CCOCC5)nc(N5CC6CCC5CO6)n4)cc3)cc2)CC1 (centres unmarked) [Example 811, 1-(4-{[4-(1-methylethyl)piperazin-1-yl]carbonyl}phenyl)-3-{4-[4-morpholin-4-yl-6-(2-oxa-5-azabicyclo[2.2.2]oct-5-yl)-1,3,5-triazin-2-yl]phenyl}urea] | 1.5 | 33.5 |  | 3.2 |  |  | 19 |
| 3 | CCN1CCN(C(=O)c2ccc(NC(=O)Nc3ccc(-c4nc(N5CCOCC5)nc(N5CC6CCC5CO6)n4)cc3)cc2)CC1 (centres unmarked) [Example 812, 1-{4-[(4-ethylpiperazin-1-yl)carbonyl]phenyl}-3-{4-[4-morpholin-4-yl-6-(2-oxa-5-azabicyclo[2.2.2]oct-5-yl)-1,3,5-triazin-2-yl]phenyl}urea] | 2 | 30.5 |  | 2.8 |  |  | 23 |
| < 3.2 | CN1CCN(C(=O)c2ccc(NC(=O)Nc3ccc(-c4nc(N5CCOCC5)nc(N5CC6CCC5CO6)n4)cc3)cc2)CC1 (centres unmarked) [Example 813, 1-{4-[(4-methylpiperazin-1-yl)carbonyl]phenyl}-3-{4-[4-morpholin-4-yl-6-(2-oxa-5-azabicyclo[2.2.2]oct-5-yl)-1,3,5-triazin-2-yl]phenyl}urea] | 1.9 | 30 |  | 3.1 |  |  | 24 |
| 4 | O=C(Nc1ccc(C(=O)N2CCNCC2)cc1)Nc1ccc(-c2nc(N3CCOCC3)nc(N3CC4CCC3CO4)n2)cc1 (centres unmarked) [Example 814, 1-{4-[4-morpholin-4-yl-6-(2-oxa-5-azabicyclo[2.2.2]oct-5-yl)-1,3,5-triazin-2-yl]phenyl}-3-[4-(piperazin-1-ylcarbonyl)phenyl]urea] | 1.05 | 10 |  | 0.8 |  |  | 37 |

| SMILES | IC50 ([1]; MDA-MB-361, 72 h, MTS) [nM] | IC50 (Human mTOR (FLAG-TOR)) [nM] | IC50 (PI3K-γ) [nM] | IC50 [1, 3] [nM] | IC50 (PI3K-α) [nM] | IC50 ([2]; MTS cell growth assay) [nM] | IC50 ([1]; 72 h, MTS) [nM] | IC50 ([2]; MTS) [nM] |
| --- | --- | --- | --- | --- | --- | --- | --- | --- |
| O=C(Nc1ccc(C(=O)N2CCC(N3CCCC3)CC2)cc1)Nc1ccc(-c2nc(N3CCOCC3)nc(N3C4CCCC3COC4)n2)cc1 [Example 800, 1-{4-[4-morpholin-4-yl-6-(3-oxa-9-azabicyclo[3.3.1]non-9-yl)-1,3,5-triazin-2-yl]phenyl}-3-{4-[(4-pyrrolidin-1-ylpiperidin-1-yl)carbonyl]phenyl}urea] | 1 | 0.72 | 35.5 |  | 5.5 |  |  | 11 |
| CCN1CCN(C(=O)c2ccc(NC(=O)Nc3ccc(-c4nc(N5CCOCC5)nc(N5C6CCC5COC6)n4)cc3)cc2)CC1 [Example 803, 1-{4-[(4-ethylpiperazin-1-yl)carbonyl]phenyl}-3-{4-[4-morpholin-4-yl-6-(3-oxa-8-azabicyclo[3.2.1]oct-8-yl)-1,3,5-triazin-2-yl]phenyl}urea] | 1 | 0.19 | 29 |  | 3 |  |  | 6 |
| CCN1CCN(C(=O)c2ccc(NC(=O)Nc3ccc(-c4nc(N5CCOCC5)nc(N5C6CCCC5COC6)n4)cc3)cc2)CC1 [Example 804, 1-{4-[(4-ethylpiperazin-1-yl)carbonyl]phenyl}-3-{4-[4-morpholin-4-yl-6-(3-oxa-9-azabicyclo[3.3.1]non-9-yl)-1,3,5-triazin-2-yl]phenyl}urea] | 3 | 0.425 | 59.5 |  | 6 |  |  | 11 |
| CCN1CCN(C(=O)c2ccc(NC(=O)Nc3ccc(-c4nc(N5CCOCC5)nc(N5C6COCC5COC6)n4)cc3)cc2)CC1 [Example 806, 1-{4-[4-(3,7-dioxa-9-azabicyclo[3.3.1]non-9-yl)-6-morpholin-4-yl-1,3,5-triazin-2-yl]phenyl}-3-{4-[(4-ethylpiperazin-1-yl)carbonyl]phenyl}urea] | < 3.2 | 0.24 | 47 |  | 4.5 |  |  | 9 |
